In patent US20160030318A1, “HIGHLY BIOAVAILABLE Na-ACYL ACIDIC AMINO ACID ESTER SALT COMPOSITONS WITH ZWITTERIONIC SURFACTANTS” (JOHNSON & JOHNSON CONSUMER INC., priority 2014, published 2016):

Legend:
[1] = Disc Retention Assay (DRA) for LAE bioavailability; assay type: in vitro ADME
Excerpt: Procedure for Determining Bioavailability
Lanzalaco. Availability Testing of Cetylpyridinium Chloride Mouthrinses. […] Mar. 19-23, 1997.
Cellulose Filter disks (Schleicher and Schuell #740-E)
24-well culture plate (Corning 3526)
Vacuum pulled filtration system
0.1% Acid Fuschin dye solution (w/v)
20% p-toluenesulfonic acid solution (w/v)
Spectrophotometer (Molecular Devices—SpectraMAX 190)
10. […] Vortexed solution.
12. Read absorbance spectrophotometrically at 545 nm.

[2] = tested on: Escherichia, Pseudomonas aeruginosa, Proteus vulgarus, Staphylococcus aureus, Bacillus substilis, Candida albicans and Aspergillus niger; details: disclosed in GB 1352420; cited from earlier work
[3] = described in JP 57-165305; cited from earlier work

Substance | BA ± SE with LAE [1] [%] | BA ± SE without LAE [1] [%] | Impact of surfactant on LAE bioavailability [1] | bactericidal activity [2] | bacteriocidal activity [3]
Cocamidopropyl Betaine | 86.1 ± 2.8 | 27.6 ± 15.0 | did not negatively impact bioavailability |  | 
N^α-cocoyl-L-arginine ethyl ester pyrrolidone carboxylate |  |  |  | bactericidal activity | weak bacteriocidal activity
N^α-cocoyl-L-arginine methyl ester pyrrolidone carboxylate |  |  |  | bactericidal activity | 
Poloxamer 407 | 35.9 ± 5.2 |  |  |  | 
